Source: paper PMC8963105, “A Novel Modulator of the Renin–Angiotensin System, Benzoylaconitine, Attenuates Hypertension by Targeting ACE/ACE2 in Enhancing Vasodilation and Alleviating Vascular Inflammation” (Frontiers in Pharmacology, 2022)

Tests used:
[1] = system: COX-2; test: COX-2 expression in aorta of SHRs (Western blot); assay type: in vivo, rat; conditions: oral 14 days
From the text: All three MDAs (BAC, BMC, and BHC) were purchased from Nature-Standard Co., Ltd. (Shanghai, China) and their purities were all over 98%. The anti-hypertensive effects of MDAs were studied in both acute and chronic experiments. The 16-week-old SHRs were used in animal experiments, and each group had six rats. In the acute experiment, drug administration was via i.v. injection. For i.v. injection, the animals were randomly assigned into four groups: vehicle (0.1% DMSO–0.9% salt solution, n = 6), low-dose group (0.6 mg kg^−1 body weight, n = 6), medium-dose group (2 mg kg^−1 body weight, n = 6), and high-dose group (6 mg kg^−1 body weight, n = 6). The drug was administered using a venous catheter. In chronic experiments, the animals were randomly assigned into five groups: vehicle (5% Tween 80–0.9% salt solution, n = 6), captopril group (5 mg kg^−1 body weight, n = 6), low-dose group (3 mg kg^−1 body weight, n = 6), medium-dose group (10 mg kg^−1 body weight, n = 6), and high-dose group (30 mg kg^−1 body weight, n = 6). Oral administration with drug or 5% Tween 80–0.9% salt solution was carried out once a day, and continued for 14 days. […] Blood pressure was recorded in real time.
The cell samples and tissue sample were collected and placed in ice rapidly. […] Protein concentration in cell lysates was measured using a Bio-Rad DC Protein Assay Kit […]. […]

[2] = system: Ang II; test: serum Ang II by ELISA in SHRs after 14-day oral administration; assay type: in vivo, rat; conditions: oral 14 days
From the text: All three MDAs (BAC, BMC, and BHC) were purchased from Nature-Standard Co., Ltd. (Shanghai, China) and their purities were all over 98%. The anti-hypertensive effects of MDAs were studied in both acute and chronic experiments. The 16-week-old SHRs were used in animal experiments, and each group had six rats. In the acute experiment, drug administration was via i.v. injection. For i.v. injection, the animals were randomly assigned into four groups: vehicle (0.1% DMSO–0.9% salt solution, n = 6), low-dose group (0.6 mg kg^−1 body weight, n = 6), medium-dose group (2 mg kg^−1 body weight, n = 6), and high-dose group (6 mg kg^−1 body weight, n = 6). The drug was administered using a venous catheter. […] Blood pressure was recorded in real time.
Blood samples were collected from the left femoral artery of rats at the end point, followed by centrifugation at 1,000 × g for 15 min at 4°C. […] The concentrations of circulating ACE, ACE2, Ang I, Ang II, Ang (1–7), TNF-α, and IL-6 in serum were measured using the ELISA kits [ACE, cat#xy-R2401c, X-Y Biotechnology, Shanghai, China; ACE2, cat#xy-ACE2-Ra, X-Y Biotechnology; Ang I, cat#xy-E12541, X-Y Biotechnology; Ang II, cat#xy-R1430c, X-Y Biotechnology; Ang (1–7), cat#xy-Ang1-7-Ra, X-Y Biotechnology; TNF-α, cat#GM1149, Servicebio, Shanghai, China; IL-6, cat#GM1154, Servicebio] according to the manufacturer’s instructions. […]

[3] = system: thoracic aorta; test: vascular function: Ang I pre-constricted isolated thoracic aorta; conditions: isolated aorta of SD rat, Ang I 10^–2 μM
Description: Endothelium-dependent vasorelaxation using aorta was evaluated as previously described ([Liao et al., 2019]). Briefly, after euthanizing the SD rat with sodium pentobarbital (100 mg kg^−1, i.p.) administration in combination with isoflurane inhalation, thoracic aorta (diameter: 150–250 μm, length: 2 mm) was mounted on two tungsten wires and attached to a tension sensor system (ADInstruments). After balancing for 2 h in Krebs’ solution at 37°C, arteries were exposed to 10 µM of phenylephrine (PE, Sigma-Aldrich, St. Louis, MO, United States) twice, followed by a single dose of acetylcholine (Ach, 3 μm, Sigma-Aldrich, St. Louis, MO, United States) to evaluate the integrity of the vessel. Afterward, the vessel was pre-constricted to maximum using AngI (Sigma-Aldrich) at 10^–2 μM and then treated with a series concentration of BAC or A779 (Sigma-Aldrich) or captopril at 10^–6 to 10^–1 μM. Lastly, a cumulative concentration response curve to BAC with A779 (at 10^–2 μM) was performed to assess the endothelium-dependent vasorelaxation.

[4] = system: mice; parameters: method as in Wada et al., 2005; conditions: ref Wada et al., 2005; cited from earlier work
[5] = target: T1, recombinant human ACE (rhACE) (Homo sapiens, UniProt P12821); test: SPR assay with rhACE; assay type: binding; conditions: rhACE on chip, 5% DMSO–1.05× PBS
T1 construct: purchased Proteintech
Description: To screen the potential targets of the MDAs in hypertension, a CVDPlatform (www.cbligand.org/CVD) was used as previously reported ([Zhang et al., 2016a]). The results of database screening were verified by virtual docking with Discovery Studio 3.5 (BIOVIA, San Diego, CA, United States) and then validated in the SPR assay. In the SPR assay, a solution of protein standards was prepared, and the concentration of recombinant human ACE (rhACE) protein and rhACE2 (Proteintech, Rosemont, IL, United States) solution was set to 500 μg ml^−1. […] Finally, the level of binding between the proteins and each molecule was determined based on the K d value.

T1 sequence (P12821 30-1306): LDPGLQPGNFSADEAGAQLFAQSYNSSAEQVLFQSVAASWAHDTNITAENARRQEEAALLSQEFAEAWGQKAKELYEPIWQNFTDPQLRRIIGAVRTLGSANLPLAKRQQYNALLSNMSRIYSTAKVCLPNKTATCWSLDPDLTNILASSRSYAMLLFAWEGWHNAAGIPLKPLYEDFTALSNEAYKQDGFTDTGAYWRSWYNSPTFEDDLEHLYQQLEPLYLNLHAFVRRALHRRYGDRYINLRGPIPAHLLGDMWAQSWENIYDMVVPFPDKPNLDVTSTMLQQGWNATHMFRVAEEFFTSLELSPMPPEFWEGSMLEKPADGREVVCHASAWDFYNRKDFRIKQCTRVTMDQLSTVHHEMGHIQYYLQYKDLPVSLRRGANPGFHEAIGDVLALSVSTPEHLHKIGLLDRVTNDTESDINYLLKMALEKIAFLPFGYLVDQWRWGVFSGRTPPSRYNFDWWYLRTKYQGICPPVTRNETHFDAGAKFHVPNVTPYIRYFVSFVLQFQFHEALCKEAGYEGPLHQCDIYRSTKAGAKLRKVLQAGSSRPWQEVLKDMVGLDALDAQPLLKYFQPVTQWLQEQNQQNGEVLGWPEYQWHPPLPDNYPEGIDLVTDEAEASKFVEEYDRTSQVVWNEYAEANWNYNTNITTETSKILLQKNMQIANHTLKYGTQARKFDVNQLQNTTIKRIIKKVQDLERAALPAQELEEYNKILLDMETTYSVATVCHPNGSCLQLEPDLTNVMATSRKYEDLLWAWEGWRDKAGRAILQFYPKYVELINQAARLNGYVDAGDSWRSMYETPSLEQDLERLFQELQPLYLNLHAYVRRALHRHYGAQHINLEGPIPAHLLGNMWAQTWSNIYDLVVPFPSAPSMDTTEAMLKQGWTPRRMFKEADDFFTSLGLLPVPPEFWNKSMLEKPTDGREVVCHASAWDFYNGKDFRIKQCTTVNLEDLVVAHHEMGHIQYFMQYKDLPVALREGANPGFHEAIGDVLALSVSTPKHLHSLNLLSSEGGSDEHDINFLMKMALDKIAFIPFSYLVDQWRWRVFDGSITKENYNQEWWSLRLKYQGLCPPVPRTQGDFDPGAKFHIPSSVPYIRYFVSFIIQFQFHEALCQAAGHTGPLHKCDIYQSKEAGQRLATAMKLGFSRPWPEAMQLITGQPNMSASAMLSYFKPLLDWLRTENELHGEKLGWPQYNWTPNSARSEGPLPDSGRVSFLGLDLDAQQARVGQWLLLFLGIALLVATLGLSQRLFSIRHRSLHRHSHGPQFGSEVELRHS

In the case of `CCN1CC2(COC)C(O)CC(OC)C34C5CC6(O)C(OC)C(O)C(O)(C5C6OC(=O)c5ccccc5)C(C(OC)C23)C14` (stereo not drawn) [BAC, Benzoylaconitine], the “expression of COX-2” value [1] is reported as “downregulated”, the “level of Ang II in blood” value [2] is reported as “decreased” and the “Ang I-induced vascular constriction” value ([3]; 10^–6 to 10^–1 μM) is reported as “attenuate”. For the same compound, the “attenuation of Ang I-induced vascular constriction in presence of Mas inhibitor A779” value ([3]; with A779) was “abolished”, the “oral median lethal dose (LD50)” value [4] was 1,500 mg kg^−1 and the Kd [5] was 11 µM.
